Article PMC4336569 (European journal of medicinal chemistry, 2014)
Entries after “also recorded” stand apart in the source; their conditions may differ.

How the values were obtained:
DOR [1] = target: DOR (Rattus norvegicus, UniProt P33533); test: Opioid receptor binding assay, [3H]DSLET displacement
MOR [2] = target: MOR (Rattus norvegicus, UniProt P33535); test: Opioid receptor binding assay, [3H]DAMGO displacement; settings: vs 4 (Gly4 replaced by β-Ala)
hNK1R [3] = target: T1, hNK1R (Homo sapiens, UniProt P25103); test: hNK1/CHO cell membrane radioligand binding assay
T1 sequence (P25103 whole entry): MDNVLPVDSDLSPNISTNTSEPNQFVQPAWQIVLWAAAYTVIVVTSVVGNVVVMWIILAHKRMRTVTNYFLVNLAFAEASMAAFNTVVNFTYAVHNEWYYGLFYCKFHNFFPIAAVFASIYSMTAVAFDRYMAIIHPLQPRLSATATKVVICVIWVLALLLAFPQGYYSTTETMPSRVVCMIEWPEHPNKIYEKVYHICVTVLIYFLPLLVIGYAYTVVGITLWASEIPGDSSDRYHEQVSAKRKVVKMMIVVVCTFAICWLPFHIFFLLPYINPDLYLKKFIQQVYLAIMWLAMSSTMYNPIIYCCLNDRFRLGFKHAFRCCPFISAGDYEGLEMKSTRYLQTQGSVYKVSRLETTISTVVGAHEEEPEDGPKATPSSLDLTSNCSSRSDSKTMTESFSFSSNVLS

hNK1R [4] = target: T1, hNK1R; test: Functional NK1R assay; format: cell-based; settings: compared to lead compound 4
CCI-exposed rats [5] = test: Tolerance development in neuropathic pain model; format: in vivo, rat; settings: von Frey and cold plate, repeated i.t. 1 nmol
CCI-exposed rats [6] = test: von Frey test; settings: for Response (ED50) with 95% confidence limits, von Frey: neuropathic pain
CCI-exposed rats [7] = test: Cold plate test; settings: for Response (ED50) with 95% confidence limits, Cold plate: neuropathic pain
naïve rats = test: Tail-flick test; settings: for antinociceptive effect in acute pain: 1 nmol i.t.; for toxic effect: 9.5 nmol i.t.; for toxic effect / Response (ED50) with 95% confidence limits, Tail-flick / effect in tail-flick test: naïve rats; for Response (ED50) with 95% confidence limits, Tail-flick: acute pain; for duration of antinociceptive effect: after intrathecal administration, data not shown; for effect in tail-flick test: i.t., 30 min after administration
CCI-exposed rats [8] = test: Cross tolerance with morphine in neuropathic pain model; format: in vivo, rat; settings: for cross tolerance with morphine: single dose of morphine 3.5 nmol on day 13 after repeated hybrid 1 nmol i.t.
MOR [9] = test: Functional GPI; format: biochemical, guinea pig
DOR [10] = target: DOR (Mus musculus, UniProt P32300); test: Functional mouse vas deferens; format: biochemical; settings: from 22 to 33, MVD assay
Sequence of DOR (Mus musculus, UniProt P32300) (P32300 whole entry): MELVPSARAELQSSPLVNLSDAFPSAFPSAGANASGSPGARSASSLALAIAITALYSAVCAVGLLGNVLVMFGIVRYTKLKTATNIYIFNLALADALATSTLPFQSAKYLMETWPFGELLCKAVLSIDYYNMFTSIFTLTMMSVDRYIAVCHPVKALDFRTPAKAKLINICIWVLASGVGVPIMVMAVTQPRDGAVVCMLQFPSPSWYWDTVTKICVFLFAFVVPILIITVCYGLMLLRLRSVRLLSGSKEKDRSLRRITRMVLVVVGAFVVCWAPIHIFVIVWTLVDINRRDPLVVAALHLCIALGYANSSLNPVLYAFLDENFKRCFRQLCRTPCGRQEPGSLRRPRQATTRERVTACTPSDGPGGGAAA

mice [11] = test: Tail-flick test
mice [12] = settings: 3.8 μmol/kg i.v., previous study; cited from earlier work

Sequence of DOR (Rattus norvegicus, UniProt P33533) (P33533 whole entry): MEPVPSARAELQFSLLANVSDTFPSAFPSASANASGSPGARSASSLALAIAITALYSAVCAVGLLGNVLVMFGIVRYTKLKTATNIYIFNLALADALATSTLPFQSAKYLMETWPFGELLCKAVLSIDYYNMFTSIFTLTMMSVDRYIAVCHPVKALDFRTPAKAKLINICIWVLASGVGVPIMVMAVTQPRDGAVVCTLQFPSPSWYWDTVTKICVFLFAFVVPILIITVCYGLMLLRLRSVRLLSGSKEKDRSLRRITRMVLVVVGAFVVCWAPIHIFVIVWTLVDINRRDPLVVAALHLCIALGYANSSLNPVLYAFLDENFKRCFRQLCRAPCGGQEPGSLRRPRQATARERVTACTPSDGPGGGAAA
Sequence of MOR (Rattus norvegicus, UniProt P33535) (P33535 whole entry): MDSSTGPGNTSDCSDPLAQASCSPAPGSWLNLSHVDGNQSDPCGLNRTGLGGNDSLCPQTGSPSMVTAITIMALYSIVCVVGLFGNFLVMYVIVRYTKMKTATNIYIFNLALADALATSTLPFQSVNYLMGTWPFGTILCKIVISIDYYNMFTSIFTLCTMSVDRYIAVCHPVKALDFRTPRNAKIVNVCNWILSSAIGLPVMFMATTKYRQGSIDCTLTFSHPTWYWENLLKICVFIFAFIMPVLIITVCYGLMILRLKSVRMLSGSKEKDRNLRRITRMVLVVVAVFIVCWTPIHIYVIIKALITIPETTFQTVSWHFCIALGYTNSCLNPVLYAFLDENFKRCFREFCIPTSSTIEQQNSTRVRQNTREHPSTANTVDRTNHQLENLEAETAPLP

In the case of `Cc1cc(O)cc(C)c1C[C@H](N)C(=O)N[C@H](CCCNC(=N)N)C(=O)N[C@H]1Cc2ccccc2CN(CCC(=O)N(C)Cc2cc(C(F)(F)F)cc(C(F)(F)F)c2)C1=O` [Compound 21, H-Dmt-D-Arg-Aba-β-Ala-NMe-3’,5’-(CF3)2-Bn], the “improvement of DOR binding” value (DOR [1]; vs 4 (Gly4 replaced by β-Ala)) is reported as 5 fold, the “improvement of MOR binding” value (MOR [2]) is reported as 5 fold and the “loss in NK1R binding” value (hNK1R [3]; vs 4) is reported as 120 fold.

With `Cc1cc(O)cc(C)c1C[C@H](N)C(=O)N[C@H](CCCNC(=N)N)C(=O)N[C@H]1Cc2ccccc2CN(CCC(=O)N(C)Cc2ccccc2)C1=O` [Compound 22, H-Dmt-D-Arg-Aba-β-Ala-NMe-Bn] the “loss in antagonism potency” value (hNK1R [4]) was 1.5 log unit, the “antinociceptive effect by area under curve” value (CCI-exposed rats [5]) was “most potent antinociceptive effect” and the toxic effect (CCI-exposed rats [6]; 1 nmol i.t., CCI rats) was “not observed”. For the same compound, the “attenuation of allodynia, von Frey” value (CCI-exposed rats [6]; 1 nmol i.t., day 7 after CCI) was 80 % MPE, the toxic signs (CCI-exposed rats [6]; i.t., CCI rats, doses up to 11 nmol) was “lack of toxic signs” and the “Response (ED50) with 95% confidence limits, von Frey” value (CCI-exposed rats [6]; day 7 after CCI) was 0.24 (0.18 - 0.32) nmol i.t. The DOR binding increase (DOR [1]; vs 21) was 10 factor, the toxicity (CCI-exposed rats [7]; 10 nmol i.t., not shown) was “lacking toxicity” and the “Response (ED50) with 95% confidence limits, Cold plate” value (CCI-exposed rats [7]; day 7 after CCI) was 0.34 (0.25 - 0.46) nmol i.t. The “antinociceptive effect in acute pain” value (naïve rats) was 30 % MPE, the toxic effect (naïve rats) was “did not induce a toxic effect” and the “Response (ED50) with 95% confidence limits, Tail-flick” value (naïve rats) was 2.78 (1.80-4.30) nmol i.t. The “duration of antinociceptive effect” value (naïve rats) was 2 h, the “effect in tail-flick test” value (naïve rats) was “increase the nociceptive threshold” and the “effect of a single dose in rats rendered tolerant to morphine” value (CCI-exposed rats [8]; 22 1 nmol i.t. after repeated morphine 3.5 nmol) was “not effective”. For the same compound, the “cross tolerance with morphine” value (CCI-exposed rats [8]) was “cross tolerance”, the “improvement of NK1R binding affinity” value (hNK1R [3]; vs 21) was “approximately 4 times” and the “improvement of in vitro agonism at MOR” value (MOR [9]; vs 21) was 6 fold.

In the case of `Cc1cc(O)cc(C)c1C[C@H](N)C(=O)N[C@H](CCCNC(=N)N)C(=O)N[C@H]1Cc2ccccc2CN(CCC(N)=O)C1=O` [Compound 33, H-Dmt-D-Arg-Aba-β-Ala-NH2], the toxic effect (CCI-exposed rats [6]; 1 nmol i.t., CCI rats) is reported as “toxic effect”, the “duration of antinociceptive effect” value (naïve rats) is reported as 2 h and the “effect in tail-flick test” value (naïve rats) is reported as “increase the nociceptive threshold”. The “shift in DOR potency” value (DOR [10]) was 10 fold and the “antinociceptive response” value (mice [11]; 1.21 μmol/kg i.v., mice) was “largely exceeded that of morphine”.

Work on `Cc1cc(O)cc(C)c1C[C@H](N)C(=O)N[C@H](CCCNC(=N)N)C(=O)N[C@H]1Cc2ccccc2CN(CC(=O)N(Cc2cc(C(F)(F)F)cc(C(F)(F)F)c2)CC(C)C)C1=O` [Compound 27, H-Dmt-D-Arg-Aba-Gly-NiBu-3’,5’-(CF3)2-Bn] yielded an IC50 (MOR [9]; read-out: GPI (IC50 nM), representative of MOR activation) of 19.7 nM.

For `Cc1cc(O)cc(C)c1C[C@H](N)C(=O)N[C@H](CCCNC(=N)N)C(=O)N[C@H]1Cc2ccccc2CN(CC(N)=O)C1=O` [Compound 7, H-Dmt-D-Arg-Aba-Gly-NH2], the toxic effect (CCI-exposed rats [6]; 1 nmol i.t., CCI rats) was “toxic effect” and the “effect in tail-flick test” value (naïve rats) was “increase the nociceptive threshold”.

With `Cc1cc(O)cc(C)c1C[C@H](N)C(=O)N[C@H](CCCNC(=N)N)C(=O)N[C@H]1Cc2ccccc2CN(CC(=O)N(C)Cc2cc(C(F)(F)F)cc(C(F)(F)F)c2)C1=O` [Compound 4, H-Dmt-D-Arg-Aba-Gly-NMe-3’,5’-(CF3)2-Bn] the toxic effect (CCI-exposed rats [6]; 1 nmol i.t., CCI rats) was “not observed”, the “attenuation of allodynia, von Frey” value (CCI-exposed rats [6]; 1 nmol i.t., day 7 after CCI) was 60 % MPE and the toxic effect (CCI-exposed rats [6]; highest investigated dose 9.5 nmol i.t., CCI rats, not shown) was “toxic effect”. For the same compound, the “Response (ED50) with 95% confidence limits, von Frey” value (CCI-exposed rats [6]; day 7 after CCI) was 1.05 (0.65 - 1.69) nmol i.t, the “Response (ED50) with 95% confidence limits, Cold plate” value (CCI-exposed rats [7]; day 7 after CCI) was 1.14 (0.74 - 1.77) nmol i.t and the “antinociceptive effect in acute pain” value (naïve rats) was 30 % MPE. The toxic effect (naïve rats) was “seizures and death of animals”, the “Response (ED50) with 95% confidence limits, Tail-flick” value (naïve rats) was 1.66 (1.11-2.51) nmol i.t and the “effect in tail-flick test” value (naïve rats) was “increase the nociceptive threshold”. For the same compound, the “cross tolerance with morphine” value (CCI-exposed rats [8]) was “cross tolerance” and the “antinociceptive potency relative to i.p. administered morphine” value (mice [12]) was 3.7 times.

For `Cc1cc(O)cc(C)c1C[C@H](N)C(=O)N[C@H](CCCNC(=N)N)C(=O)N[C@H]1Cc2ccccc2CN(CC(=O)N(Cc2ccccc2)CC(C)C)C1=O` [Compound 28, H-Dmt-D-Arg-Aba-Gly-NiBu-Bn], the GPI agonist character (MOR [9]; GPI) was “P.A ^e”.

In the case of `CC(=O)N[C@H]1Cc2ccccc2CN(CC(=O)N(C)Cc2cc(C(F)(F)F)cc(C(F)(F)F)c2)C1=O` [Compound 6, Ac-Aba-Gly-NMe-3’,5’-(CF3)2-Bn], the “antiallodynic activity” value (CCI-exposed rats [6]; i.t., day 7 after CCI) is reported as “significantly more potent than the opioid parent compounds”, the “effect on hyperalgesia” value (CCI-exposed rats [7]; i.t., day 7 after CCI) is reported as “more potent in antagonizing hyperalgesia than hybrid 4 and approximately similar to 22” and the “effect in tail-flick test” value (naïve rats) is reported as “very weak”. For the same compound, the “activity in tail-flick test after i.v. administration” value (mice [11]; doses up to 1.21 μmol/kg i.v., not shown) was “did not show any activity at all; also recorded: not active at all”.
